Values belong to the compound of their own block, whether it stands above or below them.
Tests used:
[1] = Sensory evaluation by quantitative descriptive evaluation technique (ten trained panelists, 15-point linescale); format: in vivo, human
Method: Compounds 102-105 and Comparative Compound 1 were evaluated using a quantitative descriptive evaluation technique. Ten panelists participated in the study. These panelists previously underwent extensive training in the use of standardized vocabulary to describe the appearance, aroma, flavor, and texture of a variety of products. Data collection was conducted over a period of seven days, with panelists evaluating two samples on each day of testing. Two evaluations were obtained from each panelist for each compound yielding a total of 20 evaluations per compound. During the data collection, the panelists were give a list of attributes and instructed to indicate the intensity of each attribute by indicating the intensity on a 15-point linescale. The intensity was evaluated for the following time periods: in-mouth, after expectoration, and 30 seconds, 1, 2, 5, 10, 15, 30, 45, and 60 minutes into the aftertaste period.
Compounds 102, 103, and 105 were prepared as 5 μM solutions and Compound 104 and Comparative Compound 1 were prepared in 3 μM solutions. 15 mL aliqouts of the test solutions were administered to Panelists in 1 oz. plastic cups coded with a random 3-digit code. The Panelists refrained from brushing their teeth, eating, and drinking one hour before each evaluation. Mean intensities were calculated based on the Panelists responses for each sensory characteristic. The sensory characteristics evaluated were bitter, icy cool in mouth, numbing, cooling breathe in, total burning, alcohol burning, pepperine/capsaicin, tingling, and total trigeminal impact. For each sensory characteristic, the scale of the intensity was designed to cover a range encompassing the universe of products having the indicated sensory characteristic.
After mean intensities for each attribute were calculated, statistical significance for each mean intensity was calculated using analysis of variance (ANOVA) followed by Duncan's multiple comparison test at an alpha level of 5%. […] In the results provided herein, the Duncan's levels are reported as Levels A, B, and C.
Panelists were asked to assess the intensity of both capsaicin-like burning and Alcohol-like Burning sensations for Compounds 102 and 103 and Comparative Compound 1. Capsaicin-like burning is the sensation of warming or burning in the mouth, reminiscent of black pepper or hot sauce while alcohol-like burning is the sensation of warming or burning in the mouth, reminiscent of an alcohol burn. The combination of the intensity of these sensations was used to assess the total burning for the tested compounds. The average total burning after expectoration to 60 minutes was lower for both 5 μM Compound 102 and 5 μM Compound 103 as compared to 3 μM Comparative Compound 1.
The total intensity of trigeminal nerve feeling factors on the soft tissues of the mouth, including numbing, cooling (without breathing in), irritation, warming, burning, and tingling were determined for Compounds 102 and 103 and Comparative Compound 1. The average total trigeminal impact after expectoration to 60 minutes was lower for both 5 μM Compound 102 and 5 μM Compound 103 as compared to 3 μM Comparative Compound 1.
Icy cool in mouth is the sensation of coolness of the mouth, perceived with the mouth closed, not related to the temperature of the sample. Panelists were asked to assess the sensation of icy cool in mouth for Compound 104 and Compound 105 from the time immediately after expectoration of the sample through 60 minutes after expectoration. The average Icy Cool after expectoration to 60 minutes was higher for both 5 μM Compound 105 and 3 μM Compound 104 as compared to 3 μM Comparative Compound 1.
Cooling Breath In is the sensation of coolness of the mouth, when inhaling through the mouth, not related to the temperature of the sample. […]

hTRPM8 = biological target: T1, hTRPM8 (Homo sapiens, UniProt Q7Z2W7); assay: hTRPM8 agonist assay in mammalian cell line stably expressing hTRPM8; format: cell-based; settings: EC50 of compound compared to that of WS-3, reported as a ratio
T1 construct: expressed in transfected cells
T1 sequence (Q7Z2W7 whole entry): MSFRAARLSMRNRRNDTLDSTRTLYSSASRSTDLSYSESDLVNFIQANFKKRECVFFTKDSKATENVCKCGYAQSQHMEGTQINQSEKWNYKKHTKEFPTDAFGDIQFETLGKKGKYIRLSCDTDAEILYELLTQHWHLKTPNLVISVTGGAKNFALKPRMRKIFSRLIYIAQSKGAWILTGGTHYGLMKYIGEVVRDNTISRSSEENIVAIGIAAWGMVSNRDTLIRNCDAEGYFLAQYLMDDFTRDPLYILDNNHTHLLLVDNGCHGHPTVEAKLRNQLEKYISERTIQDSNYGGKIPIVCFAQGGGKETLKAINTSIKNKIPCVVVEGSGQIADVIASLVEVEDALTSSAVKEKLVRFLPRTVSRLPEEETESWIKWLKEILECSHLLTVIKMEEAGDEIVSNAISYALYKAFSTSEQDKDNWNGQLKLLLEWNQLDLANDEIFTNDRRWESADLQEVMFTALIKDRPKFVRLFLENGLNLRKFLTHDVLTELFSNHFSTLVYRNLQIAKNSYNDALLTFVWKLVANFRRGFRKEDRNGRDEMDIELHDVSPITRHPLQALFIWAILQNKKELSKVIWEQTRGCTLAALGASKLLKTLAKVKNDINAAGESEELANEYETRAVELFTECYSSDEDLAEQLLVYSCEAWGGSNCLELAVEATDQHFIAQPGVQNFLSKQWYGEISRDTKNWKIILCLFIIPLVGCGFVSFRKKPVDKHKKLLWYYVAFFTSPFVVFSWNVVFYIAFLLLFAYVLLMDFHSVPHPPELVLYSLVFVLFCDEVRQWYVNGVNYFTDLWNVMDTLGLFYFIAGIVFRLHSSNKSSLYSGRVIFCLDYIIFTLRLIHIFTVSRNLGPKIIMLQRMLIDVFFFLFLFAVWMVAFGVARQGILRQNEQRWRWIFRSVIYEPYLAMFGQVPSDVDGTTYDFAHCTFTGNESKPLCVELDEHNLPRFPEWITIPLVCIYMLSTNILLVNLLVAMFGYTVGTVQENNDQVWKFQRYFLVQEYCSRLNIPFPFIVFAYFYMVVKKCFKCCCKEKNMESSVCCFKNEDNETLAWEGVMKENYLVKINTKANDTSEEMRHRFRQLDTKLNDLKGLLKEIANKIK
Method: A mammalian cell line derivative which stably expresses hTRPM8 was used in biological assays in association with testing the present compounds with cool-tasting or -feeling properties (Servant et al. US 2007/0259354 A1 and references cited therein). Typical compound concentrations tested were 100 μM, 30 μM, 10 μM, 3.3 μM, 1.1 μM, 0.37 μM, 0.12 μM, 0.04 μM, 0.01 μM and more dilutions for very potent compounds. The present compounds have shown strong activity as agonists of hTRPM8. […] For the sake of comparison, the EC50 of Comparative Compound 1, which was previously disclosed in U.S. 2013/0324557 A1 and has the structure

[2] = Cool Line Scale Test (sensory study, cooling intensity vs 45 μM WS-3); format: in vivo, human; settings: for Sensory Results (cooling intensity relative to 45 μM WS-3): 5 μM compound vs 45 μM WS-3, Low Sodium Buffer pH ~7.1, 0.1% ethanol, 15 point line scale; for lingering effect: sensory study
Method: A typical sensory study is described below followed by Table 5 summarizing sensory results of Compounds 101-105.
All samples made with Low Sodium Buffer (LSB) pH ˜7.1 and contain 0.1% ethanol.
Compounds are rated on a 15 point line scale where 45 μM WS-3 (N-Ethyl-p-menthane-3-carboxamide) is ranked as a 5 in cool intensity. In most cases, the compounds are tested to determine at what concentration the cooling intensity is equivalent to 45 μM WS-3. In each test, the panelist is presented with a 0 μM control sample, a 45 μM WS-3 control sample and the experimental compound sample and asked to rate the cooling intensity of each sample.

SMILES: O=C(COc1ccc(F)cc1)N(Cc1cccs1)c1cc[nH]n1 [Compound 102, 2-(4-flourophenoxy)-N-(1H-pyrazol-5-yl)-N-(thiophen-2-ylmethyl)acetamide]
Average Numbing (after expectoration to 60 minutes) ([1]; 5 μM solution): 1.4
Average Tingling (after expectoration to 60 minutes) ([1]; 5 μM solution): 0.6
Average Total Burning (after expectoration to 60 minutes) ([1]; 5 μM solution): 0.9
Average Total Trigeminal Impact (after expectoration to 60 minutes) ([1]; 5 μM solution): 2.4
Average Bitterness at 2 Minutes After Expectoration (Bitterness Rating) ([1]; 5 μM solution): 0.86
EC50 WS-3 Ratio (hTRPM8): 495.4

SMILES: Cc1cccc(OCC(=O)N(Cc2cccs2)c2cc[nH]n2)c1 [Compound 101, N-(1H-pyrazol-3-yl)-N-(thiophen-2-ylmethyl)-2-(m-tolyloxy)acetamide]
EC50 WS-3 Ratio (hTRPM8): 696.3

SMILES: CCc1ccc(OCC(=O)N(Cc2cccs2)c2cc[nH]n2)cc1 [Compound 104, 2-(4-ethylphenoxy)-N-(1H-pyrazol-3-yl)-N-(thiophen-2-ylmethyl)acetamide]
Sensory Results (cooling intensity relative to 45 μM WS-3) [2]: significantly more cooling
lingering effect [2]: unexpected lingering effect
Average Cooling Breath In (after expectoration to 60 minutes) ([1]; 3 μM solution): 2.7
Average Icy Cool In Mouth (after expectoration to 60 minutes) ([1]; 3 μM solution): 2.3
Average Icy Cool In Mouth and Immediately After Expectoration ([1]; 3 μM solution): 2.0
Average Bitterness at 2 Minutes After Expectoration (Bitterness Rating) ([1]; 3 μM solution): 0.77
EC50 WS-3 Ratio (hTRPM8): 1189444

EC50 WS-3 Ratio (hTRPM8): 28648
SMILES: Cc1ccc(OCC(=O)N(Cc2cccs2)c2ccn[nH]2)cc1 [Comparative Compound 1, reference compound]
Average Cooling Breath In (after expectoration to 60 minutes) ([1]; 3 μM solution): 2.5
Average Icy Cool In Mouth (after expectoration to 60 minutes) ([1]; 3 μM solution): 2.1
Average Icy Cool In Mouth and Immediately After Expectoration ([1]; 3 μM solution): 1.8
Average Numbing (after expectoration to 60 minutes) ([1]; 3 μM solution): 1.5
Average Tingling (after expectoration to 60 minutes) ([1]; 3 μM solution): 0.7
Average Total Burning (after expectoration to 60 minutes) ([1]; 3 μM solution): 1.1
Average Total Trigeminal Impact (after expectoration to 60 minutes) ([1]; 3 μM solution): 2.8
Average Bitterness at 2 Minutes After Expectoration (Bitterness Rating) ([1]; 3 μM solution): 1.10

SMILES: COc1ccc(OCC(=O)N(Cc2cccs2)c2cc[nH]n2)cc1 [Compound 103, 2-(4-methoxyphenoxy)-N-(1H-pyrazol-3-yl)-N-(thiophen-2-ylmethyl)acetamide]
Sensory Results (cooling intensity relative to 45 μM WS-3) [2]: equivalent to the cooling
lingering effect [2]: unexpected lingering effect
Average Numbing (after expectoration to 60 minutes) ([1]; 5 μM solution): 1.3
Average Tingling (after expectoration to 60 minutes) ([1]; 5 μM solution): 0.6
Average Total Burning (after expectoration to 60 minutes) ([1]; 5 μM solution): 0.9
Average Total Trigeminal Impact (after expectoration to 60 minutes) ([1]; 5 μM solution): 2.3
Average Bitterness at 2 Minutes After Expectoration (Bitterness Rating) ([1]; 5 μM solution): 0.90
EC50 WS-3 Ratio (hTRPM8): 1050.9

SMILES: Cc1ccc(OCC(=O)N(Cc2cccs2)c2cc[nH]n2)cc1C [Compound 105, 2-(3,4-dimethylphenoxy)-N-(1H-pyrazol-3-yl)-N-(thiophen-2-ylmethyl)acetamide]
lingering effect [2]: unexpected lingering effect
Average Cooling Breath In (after expectoration to 60 minutes) ([1]; 5 μM solution): 2.7
Average Icy Cool In Mouth (after expectoration to 60 minutes) ([1]; 5 μM solution): 2.3
Average Icy Cool In Mouth and Immediately After Expectoration ([1]; 5 μM solution): 1.9
Average Bitterness at 2 Minutes After Expectoration (Bitterness Rating) ([1]; 5 μM solution): 0.82
EC50 WS-3 Ratio (hTRPM8): 12169.3

Source: patent US10392371B2, “Compounds useful as modulators of TRPM8” (Senomyx, Inc., priority 2015, dated 2019)
